assay: HCV replicon assay (luciferase) in ET (Huh-lucubineo-ET) cell line; format: cell-based; details: Hepatitis C virus; tested at 10 μM; inhibition of replication relative to no compound control; ET replicon cells, luciferase 48-72 hours; read-out: % inhition at 10 μM

Row | SMILES | inhibition at 10 µM
1 | C=Cc1ccc(-c2cc(Cn3cc4nc(-c5cccc(F)c5F)nc-4cn3)on2)cc1 [Compound 338, 2-(2,3-Difluoro-phenyl)-5-[3-(4-vinyl-phenyl)-isoxazol-5-ylmethyl]-5H-imidazo[4,5-d]pyridazine] | 99.9%
2 | Fc1cccc(-c2nc3cnn(Cc4cc(-c5ccc(C#CC6CC6)cc5)no4)cc-3n2)c1F [Compound 339, 5-[3-(4-Cyclopropylethynyl-phenyl)-isoxazol-5-ylmethyl]-2-(2,3-difluoro-phenyl)-5H-imidazo[4,5-d]pyridazine] | 99.8%
3 | Oc1ccc(-c2cc(Cn3cc4nc(-c5cccc(F)c5F)nc-4cn3)on2)c(C(F)(F)F)c1 [Compound 340, 4-{5-[2-(2,3-Difluoro-phenyl)-imidazo[4,5-d]pyridazin-5-ylmethyl]-isoxazol-3-yl}-3-trifluoromethyl-phenol] | 0.116%
